Measured values reported in patent US7795290B2 (Genentech, Inc., priority 2004, dated 2010).

The compounds below were run against T1, AKT1 (Homo sapiens, UniProt P31749) (assay: HTS ATP-utilizing enzyme assay, off-chip mobility-shift (Caliper HTS 250)). Settings: kinase named = inhibitory activity/selectivity; test compound 10 μM; active = greater than three-sigma from mean.
T1 construct: purchased Upstate 14-276
Type: biochemical
From the text: The following procedures describe the reagent and plate preparation for a HTS of an ATP-utilizing enzyme, such as a protein kinase, run in an off-chip mobility-shift assay format. The following provides an HTS protocol for running a protein kinase HTS screen on a Caliper HTS 250 microfluidics system. The following parameters are dependent on the protein kinase used and can be determined by one skilled in the art as part of a typical assay development process. For example, the peptide substrate used can be identified from the current literature, by screening a peptide library of potential protein kinase substrates, or by other applicable means accepted in the field.
The following table provides typical screen assay parameters appropriate for a Caliper HTS 250 microfluidics system used to assay AKT1. Parameters used to assay other protein kinases can be determined by one skilled in the art.
Assays to determine the kinase inhibitory activity of chemical entities of the present disclosure were performed using a Caliper HTS 250 microfluidics device, Greiner U-bottom assay plates, a Multidrop for transfer of reagents, and Biomek FX (AMNCBM03) software. Initially, 2.4 μL of a 1 mM solution of a test compound in 100% DMSO was added to a well of the Greiner U-bottom plate. A single Greiner U-bottom plate having 24×16 wells could include multiple test compounds. […] Using the Biomek FX, 10 μL of 0.5 M EDTA was added by the span-8 to wells, indicated as 100% Control and 2.4 μL of 100% DMSO was added by the span-8 to wells, indicated as 0% Control. […] The total reaction volume in each well was 25 μL, and the concentration of the test compound was 10 μM. The assay plate was incubated for 2.5 hrs at 20° C. to 22° C. […] The inhibition of the ATP-utilizing enzyme, such as a particular protein kinase, was determined by measuring the ratio of the peptide substrate to phosphorylated product for each well of the assay plate using the Caliper HTS 250 system.
The use of three-sigma statistical limits represents a conservative method for declaring potential hits among targets. The three-sigma activity, as well as the mean population activity, can be different for each target enzyme.
Each chemical entity listed in Table 2 was tested for protein kinase inhibitory activity according to the biological assays and definitions of protein kinase inhibitory activity as described herein.

T1 sequence (P31749 whole entry): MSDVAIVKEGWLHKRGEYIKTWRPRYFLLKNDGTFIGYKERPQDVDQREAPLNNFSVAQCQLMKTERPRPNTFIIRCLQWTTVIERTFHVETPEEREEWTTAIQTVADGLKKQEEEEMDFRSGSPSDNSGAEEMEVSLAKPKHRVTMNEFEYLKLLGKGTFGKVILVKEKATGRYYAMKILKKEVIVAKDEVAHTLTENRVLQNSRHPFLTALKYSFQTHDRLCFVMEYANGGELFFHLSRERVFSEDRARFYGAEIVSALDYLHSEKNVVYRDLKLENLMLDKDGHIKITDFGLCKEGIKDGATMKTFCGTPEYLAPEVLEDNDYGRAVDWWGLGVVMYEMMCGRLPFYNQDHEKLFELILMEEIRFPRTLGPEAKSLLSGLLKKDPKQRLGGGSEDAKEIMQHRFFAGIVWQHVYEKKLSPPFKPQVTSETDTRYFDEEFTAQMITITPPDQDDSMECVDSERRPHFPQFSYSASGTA

| Activity | SMILES |
| --- | --- |
| AKT1 | COc1ccc(-c2csc(N(CCCN3CCOCC3)C(=O)c3cc(Cl)ccn3)n2)cc1 [4-chloro-N-(4-(4-methoxyphenyl)thiazol-2-yl)-N-(3-morpholinopropyl)picolinamide] |
| AKT1 | O=C(c1ccc(F)cc1)N(CCCN1CCOCC1)c1nc(-c2ccccc2)cs1 [4-fluoro-N-(3-morpholinopropyl)-N-(4-phenylthiazol-2-yl)benzamide] |
| AKT1 | COc1ccc(-c2csc(N(CCCN3CCOCC3)C(=O)c3ccc(F)cc3)n2)cc1 [4-fluoro-N-(4-(4-methoxyphenyl)thiazol-2-yl)-N-(3-morpholinopropyl)benzamide] |
| AKT1 | Cc1ccc(C(=O)N(CCCN2CCOCC2)c2nc(-c3ccccc3)cs2)cc1 [4-methyl-N-(3-morpholinopropyl)-N-(4-phenylthiazol-2-yl)benzamide] |
| AKT1 | COc1ccc(-c2csc(N(CCCN3CCOCC3)C(=O)c3ccc(Cl)s3)n2)cc1 [5-chloro-N-(4-(4-methoxyphenyl)thiazol-2-yl)-N-(3-morpholinopropyl)thiophene-2-carboxamide] |
| AKT1 | CNC(=O)[C@H]1CCCN1CCCN(C(=O)c1cccs1)c1nc(-c2cc3ccccc3o2)cs1 [(R)-1-(3-(N-(4-(benzofuran-2-yl)thiazol-2-yl)thiophene-2-carboxamido)propyl)-N-methylpyrrolidine-2-carboxamide] |
| AKT1 | O=C(O)[C@H]1CCCN1CCCN(C(=O)c1cccs1)c1nc(-c2cc3ccccc3o2)cs1 [(R)-1-(3-(N-(4-(benzofuran-2-yl)thiazol-2-yl)thiophene-2-carboxamido)propyl)pyrrolidine-2-carboxylic acid] |
| AKT1 | CN(C)C(=O)[C@@H]1CCCN1CCCN(C(=O)c1cccs1)c1nc(-c2cc3ccccc3o2)cs1 [(S)-1-(3-(N-(4-(benzofuran-2-yl)thiazol-2-yl)thiophene-2-carboxamido)propyl)-N,N-dimethylpyrrolidine-2-carboxamide] |
| AKT1 | CC(C)(C)OC(=O)[C@@H]1CCCN1CCCN(C(=O)c1cccs1)c1nc(-c2cc3ccccc3o2)cs1 [(S)-tert-butyl 1-(3-(N-(4-(benzofuran-2-yl)thiazol-2-yl)thiophene-2-carboxamido)propyl)pyrrolidine-2-carboxylate] |
| AKT1 | O=C(c1cccs1)N(CCCN1CCC[C@H]1CO)c1nc(-c2cc3ccccc3o2)cs1 [(S)—N-(4-(benzofuran-2-yl)thiazol-2-yl)-N-(3-(2-(hydroxymethyl)pyrrolidin-1-yl)propyl)thiophene-2-carboxamide] |
| AKT1 | COC[C@@H]1CCCN1CCCN(C(=O)c1cccs1)c1nc(-c2cc3ccccc3o2)cs1 [(S)—N-(4-(benzofuran-2-yl)thiazol-2-yl)-N-(3-(2-(methoxymethyl)pyrrolidin-1-yl)propyl)thiophene-2-carboxamide] |
| AKT1 | O=C(c1cccs1)N(CCCC(=O)N1c2ccccc2C[C@H]1CO)c1nc(-c2cc3ccccc3o2)cs1 [(S)—N-(4-(benzofuran-2-yl)thiazol-2-yl)-N-(4-(2-(hydroxymethyl)indolin-1-yl)-4-oxobutyl)thiophene-2-carboxamide] |
| AKT1 | O=C(Nc1ccc2c(c1)OCCO2)c1csc(N(CCCN2CCOCC2)C(=O)c2cccs2)n1 [N-(2,3-dihydrobenzo[b][1,4]dioxin-6-yl)-2-(N-(3-morpholinopropyl)thiophene-2-carboxamido)thiazole-4-carboxamide] |
| AKT1 | O=C(c1cccs1)N(CCCn1ccnc1)c1nc(-c2cc3ccccc3o2)cs1 [N-(3-(1H-imidazol-1-yl)propyl)-N-(4-(benzofuran-2-yl)thiazol-2-yl)thiophene-2-carboxamide] |
| AKT1 | O=C1CCCN1CCCN(C(=O)c1ccco1)c1nc(-c2cc(-c3ccccc3)no2)cs1 [N-(3-(2-oxopyrrolidin-1-yl)propyl)-N-(4-(3-phenylisoxazol-5-yl)thiazol-2-yl)furan-2-carboxamide] |
